Data taken from patent publication US5504190A, “Equimolar multiple oligomer mixtures, especially oligopeptide mixtures” (priority 1994, dated 1996).
Converted amounts (≈) assume the structure as drawn.

Key:
[1] = system: Staphylococcus aureus (ATCC 29213); assay: microbe, parasite or virus in culture
Description: (§1) Escherichia coli (ATCC 25922) was used as Gram-negative (-) and Staphylococcus aureus (ATCC 29213) as Gram-positive (+) bacteria. Bacteria were grown overnight (about 18 hours) at 37° C. in Mueller-Hinton (MH) broth. This culture was reinoculated and incubated at 37° C. to reach the exponential phase of bacteria growth; i.e., a final bacterial suspension containing about 10^5 to 5×10^5 colony-forming units (CFU)/ml. The concentration of cells was established by plating 100 μl of different dilutions of the culture solution (e.g., 10^-2, 10^-3 and 10^-4) onto solid agar plates. Following an overnight (about 18 hours) incubation at 37° C., the CFU thus formed were counted on each agar plate.
(§2) 96-Well tissue culture plates were utilized, with eight wells per plate containing only medium as control blanks, whereas eight other wells contained medium plus cells as a positive growth control. These controls were used to detect possible medium contamination and to provide a measure of uninhibited growth of the microorganisms.
(§3) For initial screening studies, oligopeptide sets were added to the bacterial suspension to reach a final concentration of 1 mg/ml.
(§4) The plates were incubated overnight (about 18 hours) at 37° C., and the optical density (OD) determined at 620 nm after different times of incubation.

[2] = system: Escherichia coli (ATCC 25922); assay: antimicrobial assay, growth inhibition of E. coli (OD 620 nm); format: cell-based; details: Tables 1 and 2
Description: as §1, §2, §3, §4

[3] = Staphylococcus aureus, ATCC29213
[4] = 7-mer studies, Tables 5 and 6 and parent 6-mer

Compound	IC-50 ([1]; Tables 3 and 4)	MIC ([1]; Tables 3 and 4)	IC-50 [2]	MIC [2]	further results
CC1(C)S[C@@H]2[C@H](NC(=O)[C@H](N)c3ccccc3)C(=O)N2[C@H]1C(=O)O [Ampicillin, reference compound]					MIC [1, 3]: 4 µg/mL (≈ 11.4 µM)
CC[C@H]1OC(=O)[C@H](C)[C@@H](O[C@H]2C[C@@](C)(OC)[C@@H](O)[C@H](C)O2)[C@H](C)[C@@H](O[C@@H]2O[C@H](C)C[C@H](N(C)C)[C@H]2O)[C@](C)(O)C[C@@H](C)C(=O)[C@H](C)[C@@H](O)[C@]1(C)O [Erythromycin, reference compound]					MIC [1, 3]: 0.5 µg/mL (≈ 0.681 µM)
CC1(C)S[C@@H]2[C@H](NC(=O)Cc3ccccc3)C(=O)N2[C@H]1C(=O)O [Penicillin G, reference compound]					MIC ([1]; Table 7, separate study): 32 µg/mL (≈ 95.7 µM)
CN(C)[C@@H]1C(O)=C(C(N)=O)C(=O)[C@@]2(O)C(O)=C3C(=O)c4c(O)cccc4[C@@](C)(O)[C@H]3C[C@@H]12 [Tetracycline, reference compound]					MIC [1, 3]: 0.5 µg/mL (≈ 1.13 µM)
Ac-CRRWWRF-NH2 [CRRWWRF]					IC-50 [1, 4]: 6.3 µg/mL; MIC [1, 4]: 8 to 16 µg/mL
Ac-FRRWWRF-NH2 [FRRWWRF]					IC-50 [1, 4]: 5.9 µg/mL; MIC [1, 4]: 8 to 16 µg/mL
Ac-FRWLLC-NH2 [FRWLLC]	15 µg/mL	13 to 26 µg/mL			
Ac-FRWLLH-NH2 [FRWLLH]			17 µg/mL	20 to 40 µg/mL	
Ac-FRWLLL-NH2 [FRWLLL]	18 µg/mL	16 to 31 µg/mL			
Ac-FRWLLV-NH2 [FRWLLV]			24 µg/mL	40 to 80 µg/mL	
Ac-FRWLLW-NH2 [FRWLLW]	14 µg/mL	12 to 24 µg/mL			
Ac-FRWWHF-NH2 [FRWWHF]	16 µg/mL	31 to 62 µg/mL	30 µg/mL	31 to 62 µg/mL	
Ac-FRWWHH-NH2 [FRWWHH]			31 µg/mL	34 to 62 µg/mL	
Ac-FRWWHI-NH2 [FRWWHI]	21 µg/mL	31 to 62 µg/mL			
Ac-FRWWHK-NH2 [FRWWHK]	30 µg/mL	31 to 62 µg/mL	15 µg/mL	16 to 32 µg/mL	
Ac-FRWWHL-NH2 [FRWWHL]	9.3 µg/mL	16 to 32 µg/mL	31 µg/mL	62 to 125 µg/mL	
Ac-FRWWHR-NH2 [FRWWHR]	18 µg/mL	16 to 32 µg/mL	13 µg/mL	16 to 32 µg/mL	
Ac-FRWWHW-NH2 [FRWWHW]	23 µg/mL	31 to 62 µg/mL	27 µg/mL	62 to 125 µg/mL	
Ac-LRRWWRF-NH2 [LRRWWRF]					IC-50 [1, 4]: 6.1 µg/mL; MIC [1, 4]: 8 to 16 µg/mL
Ac-RRRWWRF-NH2 [RRRWWRF]					IC-50 [1, 4]: 8 µg/mL; MIC [1, 4]: 8 to 16 µg/mL
Ac-RRWWCR-NH2 [RRWWCR, Ac-Arg-Arg-Trp-Trp-Cys-Arg-NH2]					MIC ([1]; ATCC 29213, 18 h): 3.906 µg/mL
Ac-RRWWCS-NH2 [RRWWCS]	5.9 µg/mL	7 to 14 µg/mL			
Ac-RRWWCT-NH2 [RRWWCT]	7.9 µg/mL	4.9 to 10 µg/mL			
Ac-RRWWCV-NH2 [RRWWCV]	4.9 µg/mL	3.8 to 7.7 µg/mL			
Ac-RRWWMA-NH2 [RRWWMA]			18 µg/mL	20 to 32 µg/mL	
Ac-RRWWMC-NH2 [RRWWMC]			12 µg/mL	31 to 62 µg/mL	
Ac-RRWWMF-NH2 [RRWWMF]			18 µg/mL	20 to 32 µg/mL	
